Like-named read-outs stand apart in the source and are kept apart here.
Experiments:
human D3R = human D3R (Homo sapiens, UniProt P35462); assay: Radioligand competition binding, human D3R
human μOR = human μOR (Homo sapiens, UniProt P35372); assay: biochemical; type: binding
human κOR = human κOR (Homo sapiens, UniProt P41145); assay: biochemical; type: binding
human δOR = human δOR (Homo sapiens, UniProt P41143); assay: biochemical; type: binding
Chain of human δOR (P41143 whole entry): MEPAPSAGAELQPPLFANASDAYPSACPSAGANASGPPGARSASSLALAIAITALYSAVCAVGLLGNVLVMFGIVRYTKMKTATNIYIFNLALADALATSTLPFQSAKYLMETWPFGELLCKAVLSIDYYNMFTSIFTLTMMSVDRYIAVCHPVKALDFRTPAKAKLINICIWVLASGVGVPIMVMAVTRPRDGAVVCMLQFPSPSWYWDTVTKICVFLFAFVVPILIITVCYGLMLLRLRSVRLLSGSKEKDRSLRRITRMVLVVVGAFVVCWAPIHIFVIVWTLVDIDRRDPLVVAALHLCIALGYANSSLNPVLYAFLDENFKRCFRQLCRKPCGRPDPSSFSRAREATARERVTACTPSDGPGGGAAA

Chain of human D3R (P35462 whole entry): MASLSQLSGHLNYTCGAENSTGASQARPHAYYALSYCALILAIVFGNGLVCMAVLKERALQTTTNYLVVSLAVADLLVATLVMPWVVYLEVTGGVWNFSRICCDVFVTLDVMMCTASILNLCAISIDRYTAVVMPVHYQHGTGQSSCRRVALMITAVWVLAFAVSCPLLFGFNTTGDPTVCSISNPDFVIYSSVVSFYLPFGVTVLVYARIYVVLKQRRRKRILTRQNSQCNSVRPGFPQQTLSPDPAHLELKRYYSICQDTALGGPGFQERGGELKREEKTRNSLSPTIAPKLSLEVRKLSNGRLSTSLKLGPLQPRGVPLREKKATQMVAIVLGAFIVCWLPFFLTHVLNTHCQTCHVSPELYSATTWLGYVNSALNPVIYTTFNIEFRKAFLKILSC
Chain of human μOR (P35372 whole entry): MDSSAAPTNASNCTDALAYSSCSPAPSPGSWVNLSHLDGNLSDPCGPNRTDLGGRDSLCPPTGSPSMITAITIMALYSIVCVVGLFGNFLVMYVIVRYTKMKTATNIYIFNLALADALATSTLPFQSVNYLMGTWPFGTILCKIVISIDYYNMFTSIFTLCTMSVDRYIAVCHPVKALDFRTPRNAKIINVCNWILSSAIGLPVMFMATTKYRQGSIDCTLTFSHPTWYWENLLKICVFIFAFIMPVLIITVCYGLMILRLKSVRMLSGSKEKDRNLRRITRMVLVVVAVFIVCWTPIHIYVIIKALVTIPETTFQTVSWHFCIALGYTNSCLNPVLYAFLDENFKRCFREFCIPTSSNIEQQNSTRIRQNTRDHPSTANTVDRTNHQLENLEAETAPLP
Chain of human κOR (P41145 whole entry): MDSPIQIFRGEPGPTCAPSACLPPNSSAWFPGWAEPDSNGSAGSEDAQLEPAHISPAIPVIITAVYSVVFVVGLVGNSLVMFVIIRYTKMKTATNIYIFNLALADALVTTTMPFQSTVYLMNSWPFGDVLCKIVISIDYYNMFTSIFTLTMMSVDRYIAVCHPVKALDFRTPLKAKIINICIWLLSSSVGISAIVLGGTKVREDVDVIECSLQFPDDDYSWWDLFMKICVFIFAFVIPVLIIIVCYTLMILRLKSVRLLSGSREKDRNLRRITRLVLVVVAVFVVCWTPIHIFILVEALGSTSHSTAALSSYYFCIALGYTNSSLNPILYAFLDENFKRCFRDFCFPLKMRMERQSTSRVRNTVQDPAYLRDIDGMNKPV

“2-(4-Fluoro-2-methoxyphenyl)-N-(4-(4-(2-methoxyphenyl)piperazine-1-yl)but-1-yl)azocarboxamide [3d]” was tested, and the “affinity for the D3 receptor (in words)” value (human D3R) was “single-digit”.
“2-(4-Fluorobiphen-2-yl)-N-(4-(4-(3-methoxyphenyl)piperazine-1-yl)but-1-yl)azocarboxamide [3e]” was tested, and the “affinity for the D3 receptor (in words)” value (human D3R) was “sub-nanomolar”, the “D3 selectivity over 5-HT1A, Ki(5-HT1A/D3)” value (human D3R; ratio of Ki values) was 43 and the “increase of D3 affinity compared to reference compound 3a” value (human D3R; vs ortho- and meta-unsubstituted 3a) was 10 fold.
In the case of `CN(C)C1(CNC(=O)/N=N/c2ccc(F)cc2)CCCCC1` [4a, (E)-N-((1-(Dimethylamino)cyclohexyl)methyl)-2-(4-fluorophenyl)diazene-1-carboxamide], the Ki (human μOR) is reported as 2.5 ± 1.1 µM, the “selectivity between the κ and μ opioid receptor subtypes (in words)” value (human μOR) is reported as “did not show any selectivity” and the Ki (human κOR) is reported as 3.1 ± 0.78 µM.
With `Cc1cc(F)ccc1/N=N/C(=O)NCC1(N(C)C)CCCCC1` [4b, (E)-N-((1-(Dimethylamino)cyclohexyl)methyl)-2-(4-fluoro-2-methylphenyl)diazene-1-carboxamide] the Ki (human μOR) was 4.9 ± 0.35 µM and the Ki (human κOR) was 6.1 ± 1.8 µM.
For `Cc1cc(/N=N/C(=O)NCC2(N(C)C)CCCCC2)ccc1F` [4c, (E)-N-((1-(Dimethylamino)cyclohexyl)methyl)-2-(4-fluoro-3-methylphenyl)diazene-1-carboxamide], the Ki (human μOR) was 1.1 ± 0.35 µM, the “affinity for the μ-opioid receptor (in words)” value (human μOR) was “micromolar” and the “subtype selectivity Ki(δOR/μOR)” value (human μOR) was 27. The “subtype selectivity Ki(κOR/μOR)” value (human μOR) was 4.4 and the Ki (human κOR) was 4.8 ± 1.8 µM.
For `COc1cc(F)ccc1/N=N/C(=O)NCC1(N(C)C)CCCCC1` [4d, (E)-N-((1-(Dimethylamino)cyclohexyl)methyl)-2-(4-fluoro-2-methoxyphenyl)diazene-1-carboxamide], the Ki (human μOR) was 7.4 ± 5.2 µM, the “selectivity between the κ and μ opioid receptor subtypes (in words)” value (human μOR) was “did not show any selectivity” and the Ki (human κOR) was 7.2 ± 1.8 µM. The Ki (human δOR) was 38 ± 38 µM.
“(E)-N-((1-(Dimethylamino)cyclohexyl)methyl)-2-(4-fluorobiphen-2-yl)diazene-1-carboxamide [4e]” gave a Ki (human μOR; read-out: Ki μOR) of 2.1 ± 0.57 µM and a Ki (human κOR; read-out: Ki κOR) of 4.8 ± 1.3 µM.

— publication PMC5819854 (ACS Omega, 2017)
